For 20 compounds, IC50 results are on record in patent publication US20250179083A1, “TRICYCLIC TRIAZOLO COMPOUNDS AS DGK INHIBITORS” (Incyte Corporation, priority 2023, published 2025).

One assay has as its target T1, DGKζ (Homo sapiens, UniProt Q13574).
T1 construct: His; purchased Signal Chem D30-10H
As to the kind of experiment: In vitro DGKζ inhibition assay (ADP-Glo). Conditions: His-tagged human recombinant DGKζ 0.4 nM, 30 μM ATP, 20 μM DLG, 90 minute incubation. The assay is classed as biochemical. Here is the method:
(§1) The DGKα and DGKζ biochemical reactions were performed using His-tagged human recombinant enzymes (Signal Chem, DGKα, #D21-10BH; DGKζ, #D30-10H)) and DLG (Dilauroyl-sn-glycerol) lipid substrate (Signal Chem, #D430-59). ADP-Glo assay was performed using ADP-Glo™ kinase Assay kit (Promega, #V9104). The reactions were carried out in assay buffer containing 40 mM Tris, pH 7.5, 0.1% CHAPS, 0.1% Prionex, 40 mM NaCl, 5 mM MgCl2, 1 mM CaCl2, and 1 mM DTT. DGKα reactions contained 0.1 nM DGKα, 50 μM ATP, and 20 μM DLG. And DGKζ reactions contained 0.4 nM DGKζ, 30 μM ATP, and 20 μM DLG.
(§2) Compounds were added with top concentration of 2 mM with 11 point, 3-fold dilution series. Enzyme solution (contains 2×DGK enzyme concentration in 1× assay buffer) was added to the plate in 2 μL/well volume, followed by 2 μL/well of substrate solution (contains 2× concentration of ATP and DLG substrate in 1× assay buffer). Plates were then centrifuged for 1 min at 1200 RPM and sealed or lidded. For 4 μL reaction volume, test compounds were therefore diluted 100× to final top concentration of 20 μM. After 90 minute incubation, reactions were quenched by addition of 2 μL/well Promega ADP-Glo Reagent, followed by centrifugation and lidding. After 60 min incubation, 2 μL/well Promega Kinase Detection Reagent was added, plates centrifuged, and incubated for 30 min. Plates were then read using Luminescence method on BMG PHERAstar FSX plate reader. Percent inhibition was calculated and IC50s were determined using 4-parameter fit in Genedata Screener. Labcyte Echo acoustic dispenser was used for compound addition, and Formulatrix Tempest liquid handler was used for all reagent dispenses.

A further assay concerns the target T2, DGKα (Homo sapiens, UniProt P23743).
T2 construct: His; purchased Signal Chem D21-10BH
As to the kind of experiment: In vitro DGKα inhibition assay (ADP-Glo). Type of assay: biochemical. Particulars: His-tagged human recombinant DGKα 0.1 nM, 50 μM ATP, 20 μM DLG, 90 minute incubation. Here is the method: as §1, §2

T2 sequence (P23743 whole entry): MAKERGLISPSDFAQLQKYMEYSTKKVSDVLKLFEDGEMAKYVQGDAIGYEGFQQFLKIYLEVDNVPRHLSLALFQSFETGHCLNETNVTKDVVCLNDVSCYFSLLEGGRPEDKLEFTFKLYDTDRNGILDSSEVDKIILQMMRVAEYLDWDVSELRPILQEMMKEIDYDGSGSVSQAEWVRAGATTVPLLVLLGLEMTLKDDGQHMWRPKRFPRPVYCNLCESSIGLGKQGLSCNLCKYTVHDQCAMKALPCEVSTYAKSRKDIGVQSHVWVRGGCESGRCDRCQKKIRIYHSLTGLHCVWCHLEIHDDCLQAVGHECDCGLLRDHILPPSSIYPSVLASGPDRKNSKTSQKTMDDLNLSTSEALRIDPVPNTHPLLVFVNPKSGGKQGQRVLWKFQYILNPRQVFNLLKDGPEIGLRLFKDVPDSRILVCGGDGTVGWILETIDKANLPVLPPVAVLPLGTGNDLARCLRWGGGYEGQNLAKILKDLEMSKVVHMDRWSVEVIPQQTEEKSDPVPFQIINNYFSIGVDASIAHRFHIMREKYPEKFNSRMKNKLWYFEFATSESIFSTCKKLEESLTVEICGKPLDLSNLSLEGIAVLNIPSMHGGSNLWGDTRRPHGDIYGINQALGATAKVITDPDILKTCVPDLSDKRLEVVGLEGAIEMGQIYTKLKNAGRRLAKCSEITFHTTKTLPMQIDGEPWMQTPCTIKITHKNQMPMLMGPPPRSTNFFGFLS
T1 sequence (Q13574 whole entry): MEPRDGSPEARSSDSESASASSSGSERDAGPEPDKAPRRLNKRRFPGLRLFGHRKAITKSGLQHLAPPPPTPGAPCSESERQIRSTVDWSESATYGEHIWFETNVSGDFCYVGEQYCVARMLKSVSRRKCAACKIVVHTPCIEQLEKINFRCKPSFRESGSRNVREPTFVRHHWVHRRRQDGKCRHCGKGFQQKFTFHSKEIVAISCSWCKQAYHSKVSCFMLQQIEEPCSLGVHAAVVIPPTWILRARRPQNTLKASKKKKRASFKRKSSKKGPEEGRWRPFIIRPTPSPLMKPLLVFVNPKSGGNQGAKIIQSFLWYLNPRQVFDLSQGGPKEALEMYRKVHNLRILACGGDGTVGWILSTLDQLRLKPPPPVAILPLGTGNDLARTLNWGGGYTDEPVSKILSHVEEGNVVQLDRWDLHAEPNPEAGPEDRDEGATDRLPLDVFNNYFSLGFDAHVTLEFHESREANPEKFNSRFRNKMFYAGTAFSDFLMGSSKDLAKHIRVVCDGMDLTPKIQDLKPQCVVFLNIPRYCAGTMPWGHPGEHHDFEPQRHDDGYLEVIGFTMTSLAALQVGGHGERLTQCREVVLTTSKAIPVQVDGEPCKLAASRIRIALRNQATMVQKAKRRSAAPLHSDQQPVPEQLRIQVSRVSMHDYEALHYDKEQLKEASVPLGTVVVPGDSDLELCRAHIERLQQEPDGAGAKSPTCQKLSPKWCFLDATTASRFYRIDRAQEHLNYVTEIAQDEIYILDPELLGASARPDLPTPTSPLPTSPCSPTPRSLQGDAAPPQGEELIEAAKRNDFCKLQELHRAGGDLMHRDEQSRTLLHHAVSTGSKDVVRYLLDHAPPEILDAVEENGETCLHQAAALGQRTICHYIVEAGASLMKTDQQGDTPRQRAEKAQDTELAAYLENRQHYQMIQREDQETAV

In the case of `Cc1nc2c(N3C[C@@H](C)N(C(CC(C)C)c4ccc(Cl)c(F)c4)C[C@@H]3C)nc3nncn3c2n1C[C@@H]1CCCO1` (single isomer, unassigned) [Example 18], the IC50 on DGKζ and at DGKα was less than 20 nM throughout.
As to `CC(C)CC(c1ccc(C(F)(F)F)cc1)N1C[C@H](C)N(c2nc3nncn3c3c2ncn3C[C@@H]2CCCO2)C[C@H]1C` (single isomer, unassigned) [Example 14], the concentration for half-maximal inhibition (IC50) at DGKζ and on DGKα was less than 20 nM in each case.
For the compound `Cc1nc2c(N3C[C@@H](C)N(C(c4cc(F)c(Cl)cc4F)C4CC(F)(F)C4)C[C@@H]3C)nc3nncn3c2n1C[C@@H]1CCCO1` (stereo partly drawn) [Example 79, 4-((2S,5R)-4-((4-Chloro-2,5-difluorophenyl)(3,3-difluorocyclobutyl)methyl)-2,5-dimethylpiperazin-1-yl)-2-methyl-1-(((S)-tetrahydrofuran-2-yl)methyl)-1H-[1,2,4]triazolo[3,4-b]purine], the IC50 at DGKζ and on DGKα was less than 20 nM throughout.
Regarding `C[C@@H]1CN(c2nc3nncn3c3c2ncn3C[C@@H]2CCCO2)[C@@H](C)CN1Cc1ccc(C(F)(F)F)cc1` [Example 40, 4-((2S,5R)-2,5-Dimethyl-4-(4-(trifluoromethyl)benzyl)piperazin-1-yl)-1-(((S)-tetrahydrofuran-2-yl)methyl)-1H-[1,2,4]triazolo[3,4-b]purine], the IC50 on DGKζ and on DGKα was less than 20 nM each time.
For the compound `C[C@@H]1CN(c2nc3nncn3c3c2ncn3CC2(O)CCCC2)[C@@H](C)CN1C(c1ccc(C(F)(F)F)cc1)C1CC(F)(F)C1` (stereo partly drawn) [Example 46, 1-((4-((2S,5R)-4-((3,3-Difluorocyclobutyl)(4-(trifluoromethyl)phenyl)methyl)-2,5-dimethylpiperazin-1-yl)-1H-[1,2,4]triazolo[3,4-b]purin-1-yl)methyl)cyclopentan-1-ol], the IC50 at DGKζ and on DGKα was less than 20 nM in each case.
For the compound `CC[C@@H](c1ccc(Cl)cc1)N1C[C@H](C)N(c2nc3nncn3c3c2ncn3C[C@@H]2CCCO2)C[C@H]1C` [Example 57, 4-((2S,5R)-4-((S)-1-(4-Chlorophenyl)propyl)-2,5-dimethylpiperazin-1-yl)-1-(((S)-tetrahydrofuran-2-yl)methyl)-1H-[1,2,4]triazolo[3,4-b]purine], the 50% inhibitory concentration (IC50) (usually the concentration needed to halve the response being measured) on DGKζ is 20 to 200 nM; at DGKα it was less than 20 nM.
In the same order, the values of `Cc1nc2c(N3C[C@@H](C)N([C@@H](c4ccc(Br)cc4F)C(C)C)C[C@@H]3C)nc3nncn3c2n1C[C@@H]1CCCO1` [Example 27, 4-((2S,5R)-4-((R)-1-(4-bromo-2-fluorophenyl)-2-methylpropyl)-2,5-dimethylpiperazin-1-yl)-2-methyl-1-(((S)-tetrahydrofuran-2-yl)methyl)-1H-[1,2,4]triazolo[3,4-b]purine] are less than 20 nM and less than 20 nM.
For `Cc1nc2c(N3C[C@@H](C)N(Cc4c(F)cc(Cl)cc4F)C[C@@H]3C)nc3nncn3c2n1C[C@@H]1CCCO1` [Example 73, 4-((2S,5R)-4-(4-Chloro-2,6-difluorobenzyl)-2,5-dimethylpiperazin-1-yl)-2-methyl-1-(((S)-tetrahydrofuran-2-yl)methyl)-1H-[1,2,4]triazolo[3,4-b]purine] the same measures were less than 20 nM and less than 20 nM.
As for `CC[C@@H]1CN(c2nc3nncn3c3c2nc(C)n3C[C@@H]2CCCO2)[C@@H](C)CN1[C@@H](C)c1ccc(C(F)(F)F)cc1` [Example 41, 4-((2S,5R)-5-Ethyl-2-methyl-4-((S)-1-(4-(trifluoromethyl)phenyl)ethyl)piperazin-1-yl)-2-methyl-1-(((S)-tetrahydrofuran-2-yl)methyl)-1H-[1,2,4]triazolo[3,4-b]purine], the IC50 at DGKζ and on DGKα was less than 20 nM in each case.
Take `Cc1nc2c(N3C[C@@H](C)N(C(c4ccc(Cl)cc4F)C4CC(F)(F)C4)C[C@@H]3C)nc3nncn3c2n1C[C@@H]1CCCO1` (stereo partly drawn) [Example 5, 4-((2S,5R)-4-((4-Chloro-2-fluorophenyl)(3,3-difluorocyclobutyl)methyl)-2,5-dimethylpiperazin-1-yl)-2-methyl-1-(((S)-tetrahydrofuran-2-yl)methyl)-1H-[1,2,4]triazolo[3,4-b]purine]: the IC50 at DGKζ and at DGKα was less than 20 nM each time.
For the compound `CC[C@H](c1ccc(C(F)(F)F)cc1)N1C[C@H](C)N(c2nc3nncn3c3c2ncn3C[C@@H]2CCCO2)C[C@H]1C` [Example 60, 4-((2S,5R)-2,5-dimethyl-4-((R)-1-(4-(trifluoromethyl)phenyl)propyl)piperazin-1-yl)-1-(((S)-tetrahydrofuran-2-yl)methyl)-1H-[1,2,4]triazolo[3,4-b]purine], the 50% inhibitory concentration (IC50) on DGKζ and at DGKα was less than 20 nM throughout.
For `CC[C@@H]1CN(c2nc3nncn3c3c2nc(C)n3C[C@@H]2CCCO2)[C@@H](C)CN1[C@H](C)c1ccc(C(F)(F)F)cc1` [Example 42, 4-((2S,5R)-5-ethyl-2-methyl-4-((R)-1-(4-(trifluoromethyl)phenyl)ethyl)piperazin-1-yl)-2-methyl-1-(((S)-tetrahydrofuran-2-yl)methyl)-1H-[1,2,4]triazolo[3,4-b]purine], the IC50 at DGKζ and at DGKα was less than 20 nM in each case.
With `Cc1nc2c(N3C[C@@H](C)N(C(c4ccc(C(F)F)cc4F)C(C)C)C[C@@H]3C)nc3nncn3c2n1C[C@@H]1CCCO1` (stereo partly drawn) [Example 25, 4-((2S,5R)-4-(1-(4-(Difluoromethyl)-2-fluorophenyl)-2-methylpropyl)-2,5-dimethylpiperazin-1-yl)-2-methyl-1-(((S)-tetrahydrofuran-2-yl)methyl)-1H-[1,2,4]triazolo[3,4-b]purine], the IC50 on DGKζ and at DGKα was less than 20 nM throughout.
`CC[C@@H](c1ccc(Cl)cc1)N1C[C@H](C)N(c2nc3nncn3c3c2nc(C)n3C[C@@H]2CCCO2)C[C@H]1C` [Example 85, 4-((2S,5R)-4-((S)-1-(4-Chlorophenyl)propyl)-2,5-dimethylpiperazin-1-yl)-2-methyl-1-(((S)-tetrahydrofuran-2-yl)methyl)-1H-[1,2,4]triazolo[3,4-b]purine]: the IC50 on DGKζ and at DGKα was less than 20 nM each time.
`Cc1nc2c(N3C[C@@H](C)N([C@H](c4ccc(Br)cc4F)C(C)C)C[C@@H]3C)nc3nncn3c2n1C[C@@H]1CCCO1` [Example 26, 4-((2S,5R)-4-((S)-1-(4-Bromo-2-fluorophenyl)-2-methylpropyl)-2,5-dimethylpiperazin-1-yl)-2-methyl-1-(((S)-tetrahydrofuran-2-yl)methyl)-1H-[1,2,4]triazolo[3,4-b]purine]: the IC50 on DGKζ and on DGKα was less than 20 nM in each case.
In the case of `Cc1nc2c(N3C[C@@H](C)N([C@@H](c4ccc(Cl)cc4)[C@H]4CC4(F)F)C[C@@H]3C)nc3nncn3c2n1C[C@@H]1CCCO1` (single isomer, unassigned) [Example 56], the IC50 on DGKζ and on DGKα was less than 20 nM each time.
Take `CC[C@@H]1CN(c2nc3nncn3c3c2ncn3C[C@@H]2CCCO2)[C@@H](C)CN1C(c1ccc(Cl)cc1)C1CC(F)(F)C1` (stereo partly drawn) [Example 34, 4-((2S,5R)-4-((4-Chlorophenyl)(3,3-difluorocyclobutyl)methyl)-5-ethyl-2-methylpiperazin-1-yl)-1-(((S)-tetrahydrofuran-2-yl)methyl)-1H-[1,2,4]triazolo[3,4-b]purine]: the IC50 on DGKζ and on DGKα was less than 20 nM each time.
Regarding `C[C@@H]1CN(c2nc3nncn3c3c2ncn3CC2(O)CCCC2)[C@@H](C)CN1C(c1ccc(Cl)cc1)c1ccc(Cl)cc1` [Example 44, 1-((4-((2S,5R)-4-(Bis(4-chlorophenyl)methyl)-2,5-dimethylpiperazin-1-yl)-1H-[1,2,4]triazolo[3,4-b]purin-1-yl)methyl)cyclopentan-1-ol], the IC50 on DGKζ and at DGKα was less than 20 nM each time.
On to `C[C@@H]1CN(c2nc3nncn3c3c2ncn3C[C@@H]2CCCO2)[C@@H](C)CN1C(c1ccc(Cl)c(F)c1)C1CC(F)(F)C1` (stereo partly drawn) [Example 30, 4-((2S,5R)-4-((4-Chloro-3-fluorophenyl)(3,3-difluorocyclobutyl)methyl)-2,5-dimethylpiperazin-1-yl)-1-(((S)-tetrahydrofuran-2-yl)methyl)-1H-[1,2,4]triazolo[3,4-b]purine], for which the IC50 on DGKζ and on DGKα was less than 20 nM each time.
Turning to `CC[C@@H](c1ccc(C(F)(F)F)cc1)N1C[C@H](C)N(c2nc3nncn3c3c2ncn3C[C@@H]2CCCO2)C[C@H]1C` [Example 59, 4-((2S,5R)-2,5-Dimethyl-4-((S)-1-(4-(trifluoromethyl)phenyl)propyl)piperazin-1-yl)-1-(((S)-tetrahydrofuran-2-yl)methyl)-1H-[1,2,4]triazolo[3,4-b]purine], the IC50 on DGKζ and on DGKα was less than 20 nM throughout.
